Results on two compounds are retold here after patent EP1368050B1, “VIRUS DERIVED ANTIMICROBIAL PEPTIDES” (priority 2001, dated 2008).

For data set [1], the system named is differentiated primary human airway epithelial cells. Briefly: Co-culture model: epithelial cell toxicity by transepithelial resistance. The note with it: at a decrease in bacterial counts by two orders of magnitude, Figure 9. It counts as cell-based. From the text: The antimicrobial peptides of the invention display selective toxicity to target microorganisms and minimal toxicity to mammalian cells. Determining the toxicity of the peptides claimed in this invention on mammalian cells is preferably performed using tissue culture assays. For mammalian cells, such assay methods include, inter alia, trypan blue exclusion and MTT assays (see Moore et al., 1994, Peptide Research 7:265-269). […] In addition, the disruption of the transepithelial resistance (Rte) of a cell monolayer that have formed tight junctions can be monitored. […]
Preparation of eukaryotic cells. […] In order to release viable bacteria, trypsin/EDTA was added and these preparations were plated on standard bacteriologic media to quantify bacterial survival. Similarly prepared cells were monitored for peptide toxicity by measuring transepithelial resistance. […]
Based on above in vitro findings, WLSA-5 (SEQ ID NO:3) was tested in a scenario that more accurately assessed its selective toxicity. […] The ability of peptide to kill bacteria is monitored as a function of viable bacteria associated with the epithelial cells after peptide exposure. […]

Data set [2] has as its system Pseudomonas aeruginosa. The note with it: 1x10^5 colony-forming units; cited from earlier work.
Data set [3] relates to Ca^2+-saturated calmodulin. The following applies: host cell Ca^2+-saturated calmodulin; cited from earlier work.
Data set [4] relates to Staphylococcus aureus. The following applies: 1x10^5 colony-forming units; cited from earlier work.

Residues, ends and D or L forms follow the SMILES beside them. Where only a bound is given, the exact number is not on record here.

Turning to `CC[C@H](C)[C@H](NC(=O)[C@H](C)NC(=O)[C@H](CCCNC(=N)N)NC(=O)[C@H](CS)NC(=O)[C@H](Cc1c[nH]c2ccccc12)NC(=O)[C@H](CCCNC(=N)N)NC(=O)[C@H](CCC(N)=O)NC(=O)[C@@H](NC(=O)[C@@H](NC(=O)[C@H](CCCNC(=N)N)NC(=O)[C@@H](NC(=O)[C@H](Cc1c[nH]c2ccccc12)NC(=O)[C@@H](N)CCCNC(=N)N)[C@@H](C)CC)C(C)C)C(C)C)C(=O)N[C@@H](CCCNC(=N)N)C(=O)N[C@@H](Cc1c[nH]cn1)C(=O)N[C@H](C(=O)N[C@@H](Cc1c[nH]c2ccccc12)C(=O)N[C@@H](CCCNC(=N)N)C(=O)N[C@@H](CCCNC(=N)N)C(=O)N[C@H](C(=O)N[C@@H](CCCNC(=N)N)C(=O)N[C@@H](CCC(N)=O)C(=O)NCC(=O)N[C@@H](CC(C)C)C(=O)N[C@@H](CCCNC(=N)N)C(=O)N[C@@H](CCCNC(=N)N)C(=O)N[C@@H](Cc1c[nH]c2ccccc12)C(=O)N[C@@H](CC(C)C)C(=O)N[C@@H](CCCNC(=N)N)C(=O)N[C@H](C(=O)N[C@H](C(=O)O)C(C)C)C(C)C)[C@@H](C)CC)[C@@H](C)CC` [WLSA-5] (H-RWIRVVQRWCRAIRHIWRRIRQGLRRWLRVV-OH), the “change in transepithelial resistance” value in data set [1] is “less than 50%”.

Consider `CC[C@H](C)[C@H](NC(=O)[C@H](C)NC(=O)[C@H](CCCNC(=N)N)NC(=O)[C@H](CS)NC(=O)[C@H](C)NC(=O)CNC(=O)[C@H](CCC(N)=O)NC(=O)[C@@H](NC(=O)[C@@H](NC(=O)[C@H](CCC(=O)O)NC(=O)[C@@H](NC(=O)[C@@H](NC(=O)[C@@H](N)CCCNC(=N)N)C(C)C)[C@@H](C)CC)C(C)C)C(C)C)C(=O)N[C@@H](CCCNC(=N)N)C(=O)N[C@@H](Cc1c[nH]cn1)C(=O)N[C@H](C(=O)N1CCC[C@H]1C(=O)N[C@@H](CCCNC(=N)N)C(=O)N[C@@H](CCCNC(=N)N)C(=O)N[C@H](C(=O)N[C@@H](CCCNC(=N)N)C(=O)N[C@@H](CCC(N)=O)C(=O)NCC(=O)N[C@@H](CC(C)C)C(=O)N[C@@H](CCC(=O)O)C(=O)N[C@@H](CCCNC(=N)N)C(=O)N[C@H](C(=O)N[C@@H](CC(C)C)C(=O)O)[C@@H](C)CC)[C@@H](C)CC)[C@@H](C)CC` [LLP1] (H-RVIEVVQGACRAIRHIPRRIRQGLERIL-OH; N-terminus and C-terminus assumed), for which the “time to nearly sterilize a suspension” value in data set [2] and in data set [4] was not above 60 s throughout. Moreover, the affinity for calmodulin entry in data set [3] is listed as “near nanomolar affinity”.
